Patent publication US20230212571A1, “COMPOSITIONS AND METHODS FOR DELIVERING POLYNUCLEOTIDES” (NeOnc Technologies, Inc., priority 2020, published 2023)

Key:
BEC = test: Invasion assay, Matrigel-coated Boyden chamber, control BEC; type: cell-based, human; details: P>0.9999
Description: The chemoinvasion assay was described^14. (Marín-Ramos N I, Thein T Z, Cho H-Y, et al. NEO212 inhibits migration and invasion of glioma stem cells. Mol Cancer Ther. 2018; 17(3):625-637). Pictures were captured using an Eclipse 80i microscope (Nikon), and cells counted with ImageJ Software (NIH).

[1] = tested on: Mgp^−/− mouse model of AVM; test: In vivo computed tomography angiography (CTA) of brain vasculature
Description: In vivo ultra-high-resolution computed tomography angiography (CTA) was performed to study changes in neurovascular architecture like methods described previously. (Mukundan S, Jr., […], Badea C T, et al. A liposomal nanoscale contrast agent for preclinical CT in mice. AJR Am J Roentgenol. 2006; 186(2):300-307) ([…], Rendon D, et al. Ultra-High-Resolution In vivo Computed Tomography Imaging of Mouse Cerebrovasculature Using a Long Circulating Blood Pool Contrast Agent. Scientific reports. 2015; 5:10178). Briefly, mice were anesthetized using 3-4% isoflurane, positioned on a CT cradle and maintained at 1-1.5% isoflurane delivered via nose cone. Mice were intravenously injected a long circulating liposomal-iodine blood pool contrast agent (2.2 g/kg body weight) for CTA^8,9 and scanned on a small animal micro-CT scanner Rigaku CT Lab GX90-1-E. The following scan parameters were used: High Resolution Scan Mode, 70 kVp, 114 uA, 10 mm FOV, 1440 projections, 20 μm voxel size, 14 min scan time. All animal protocols were approved by the USC's Institutional Animal Care and Use Committee (IACUC) and strictly adhered to. MiR-18a was co-administered with Ago-2 (0.0008 nmol/mouse) to increase stability and cellular uptake^9 (Ferreira R, Santos T, Amar A, et al. Argonaute-2 promotes miR-18a entry in human brain endothelial cells. J Am Heart Assoc. 2014; 3(3):e000968). (FIG. 9). Details about randomization, blinding, group size and inclusion/exclusion criteria have been included in Methods. […] The vascular data was quantified using ImageJ. […] The pixels were analyzed as particles and normalized to results from the wildtype mice (WT, Mgp^+/+).

## hsa-miR-18a-5p (UAGGUGCAUCUAGUGCAGAUAG; chemistry not given here; listed as Homo sapiens) [small non-coding RNA molecule involved in post-transcriptional regulation of gene expression; Dharmacon]
BEC
  invasiveness: without affecting control BEC
[1]; 0.08 nmol/mouse IN daily for 2-weeks with Ago-2
  AzACA vessel density compared to healthy wildtype mice: 92-94%
[1]; Mgp^−/− mice, IN 2-weeks
  brain vasculature and leakage (CTA): normalized
  calcifications found in carotids: no effect
